Laboratory results from patent US5639603A, “Synthesizing and screening molecular diversity” (Affymax Technologies N.V., priority 1993, dated 1997).
Where a SMILES comes first, the peptide text is derived from it. Where no end group is shown, it is not given here. [ ]: non-standard residue; d: D form.

target: monoclonal antibody D32.39; test: competition binding experiment with radiolabelled tracer peptide on D32.39-coated wells; details: competition with 33P-labelled tracer LRRASLGGGRRQFKVVT 50 pM; wells coated with D32.39 0.1 μg/mL; 2 hr at 4° C.; IC50 taken as close to Kd
Description: The binding affinities of various peptides for the monoclonal antibody D32.39 were measured in a competition binding experiment. […] The peptide mixtures were added to polystyrene wells coated with D32.39 (0.1 μg/mL). Samples were incubated 2 hr. at 4° C., the wells washed with PBS, and the radioactivity associated with each well was counted and used to generate a competitive binding curve. Under the conditions of the assay the IC50 should be close to the dissociation constant (Kd) for the peptide.

Compound	Kd [nM]
CC(=O)N[C@@H](CCCCN)C(=O)N[C@@H](CCC(N)=O)C(=O)N[C@@H](Cc1ccccc1)C(=O)N[C@@H](CCCCN)C(=O)N[C@H](C(=O)N[C@H](C(=O)N[C@@H](CCCCN)C(=O)N[C@H](C(=O)O)[C@@H](C)O)[C@@H](C)O)C(C)C [KQFKVTKT] (Ac-KQFKVTKT-OH)	340
CC(=O)N[C@@H](CCC(N)=O)C(=O)N[C@@H](C(=O)N[C@@H](CCCNC(=N)N)C(=O)N[C@@H](CCC(N)=O)C(=O)N[C@@H](Cc1ccccc1)C(=O)N[C@@H](CCCCN)C(=O)N[C@H](C(=O)N[C@H](C(=O)O)[C@@H](C)O)[C@@H](C)O)C(C)C [QvRQFKTT] (Ac-Q[dV]RQFKTT-OH)	16
CC(=O)N[C@H](C(=O)N[C@@H](Cc1ccccc1)C(=O)N[C@@H](CCCNC(=N)N)C(=O)N[C@@H](CCC(N)=O)C(=O)N[C@@H](Cc1ccccc1)C(=O)N[C@@H](CCCCN)C(=O)N[C@H](C(=O)N[C@H](C(=O)O)[C@@H](C)O)C(C)C)[C@@H](C)O [TFRQFKVT] (Ac-TFRQFKVT-OH)	0.29
CC(=O)N[C@H](C(=O)N[C@@H](Cc1ccccc1)C(=O)N[C@@H](CCCNC(=N)N)C(=O)N[C@@H](C(=O)N[C@@H](Cc1ccccc1)C(=O)N[C@@H](CCCNC(=N)N)C(=O)N[C@H](C(=O)N[C@H](C(=O)O)[C@@H](C)O)C(C)C)C(C)C)[C@@H](C)O [TFRvFRVT] (Ac-TFR[dV]FRVT-OH)	1400
CC(=O)N[C@H](C(=O)N[C@@H](CCC(N)=O)C(=O)N[C@@H](Cc1ccccc1)C(=O)N[C@@H](CCCCN)C(=O)N[C@H](C(=O)N[C@H](C(=O)N[C@@H](CCCCN)C(=O)N[C@H](C(=O)O)[C@@H](C)O)[C@@H](C)O)C(C)C)[C@@H](C)O [TQFKVTKT] (Ac-TQFKVTKT-OH)	560
KQFKVTQT	410
QQFKVVQT	370
RQFRTVQT	76
TTRRFRVT	4.3
TVRQFKTT	8.8

tested on: anti-dynorphin B mAb D32.39; test: flow cytometry (FACS) staining of beads with mAb D32.39 and phycoerythrin-conjugated second antibody; type: binding, mouse; details: 10 μm beads carrying peptide and 69-mer oligonucleotide tag; blank beads unstained
Description: The binding of mAb D32.39 to control beads and to the bead library was analyzed by flow cytometry. […] By contrast, only a small fraction of the encoded library bound D32.39. Analysis of 10^5 events indicated ~2% of the library stained above background levels. […] The amplification reactions contained dUTP and uracil DNA glycosidase to prevent carryover contamination with soluble product from previous amplifications (see Longo et al., 1990, Gene 93: 125-128, incorporated herein by reference).
A portion of a library (typically 0.5-2 mg of beads) was suspended in blocking buffer (PBS, 1% BSA, 0.05% Tween-20) and incubated at room temperature for 1 hr. The beads were pelleted by centrifugation and resuspended in a solution of mAb D32.39 ([…] in blocking buffer). The suspension was incubated on ice for 30 min., pelleted by centrifugation, and washed with blocking buffer. The beads were then suspended in a solution of phycoerythrin-conjugated goat anti-mouse antibody (Molecular Probes) for 20 min. on ice. The beads were washed in blocking buffer and diluted in PBS for delivery into the fluorescence activated cell sorting (FACS) instrument (Becton Dickinson FACStar Plus). Beads which had bound the mAb D32.39 were identified by their acquired fluorescence. Individual beads from both the most brightly stained 0.17% of the library and from the region having the lowest fluorescence (ca. 98%) were sorted into PCR microfuge vials. Specific binding of D32.39 to the beads was blocked by preincubation of the mAb with the soluble peptide Ac-RQFKVVT-OH (SEQ ID NO:2) at a final concentration of 10 μM.

Compound	staining by mAb D32.39 of beads carrying the sequence
RQFKVVT (RQFKVVT-NH2) [H-Arg-Gln-Phe-Lys-Val-Val-Thr-NH2, C-terminal seven amino acid fragment of the opioid peptide dynorphin B; positive control]	strongly stained

same assay, conditions: flow cytometry; soluble peptide at final concentration 10 μM

Compound	blocking of D32.39 binding to library beads by preincubating the mAb with soluble peptide
CC(=O)N[C@@H](CCCNC(=N)N)C(=O)N[C@@H](CCC(N)=O)C(=O)N[C@@H](Cc1ccccc1)C(=O)N[C@@H](CCCCN)C(=O)N[C@H](C(=O)N[C@H](C(=O)N[C@H](C(=O)O)[C@@H](C)O)C(C)C)C(C)C [Ac-RQFKVVT-OH] (Ac-RQFKVVT-OH)	blocked
RQFKVVT (RQFKVVT-NH2) [H-Arg-Gln-Phe-Lys-Val-Val-Thr-NH2, C-terminal seven amino acid fragment of the opioid peptide dynorphin B; positive control]	completely blocked

target: anti-dynorphin B mAb D32.39; test: not given; details: soluble hepta-peptide; see Cull et al.; cited from earlier work

Compound	Kd [nM]
RQFKVVT (RQFKVVT-NH2) [H-Arg-Gln-Phe-Lys-Val-Val-Thr-NH2, C-terminal seven amino acid fragment of the opioid peptide dynorphin B; positive control]	~1
